Some test systems named below: OVCAR-4; RPMI-8226; KM12; NCI-H226; NCI-H460; OVCAR-5; CCRF-CEM; IGROV-1; M19-MEL; EKVX; M14; SK-OV-3; MOLT-4; SNB-75; CAKI-1; LOX IMVI; TK-10.
Holding throughout (assay): NCI anticancer screen, dose series, 48 h

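96-well plates; 48 h exposure; 5 concentrations. Endpoints by linear interpolation between flanking doses. Not reached: highest tested concentration assigned. The concentration for 50% growth inhibition is given as GI50.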 The source made the active and inactive calls. Cut-off read from the data, not from the text of the source: active = GI50 up to about 1.1 µM and inactive = higher.

As to `Cc1ccccc1N(CCC#N)C1=NN(C(=O)CC(=O)Nc2ccc(Cl)cc2)C(c2ccccc2)C1` (stereo not given), the GI50 in the test on OVCAR-4, in the test on RPMI-8226, in the test on KM12, with NCI-H226, with NCI-H460 and in the test with OVCAR-5 was > 100 µM (inactive) in each case. Further, the GI50 with CCRF-CEM, in the test on IGROV-1, with M19-MEL, with EKVX, with M14 and in the test with SK-OV-3 was > 100 µM (inactive) in each case. The GI50 in the test on MOLT-4 and with SNB-75 was > 100 µM (inactive) each time.

In the case of `Cc1c(C(=O)Nc2ccc(Cl)cc2)nc(N)nc1-c1cccc(Cl)c1`, the GI50 in the test with OVCAR-4 is > 100 µM (inactive); with KM12, 46.6 µM (inactive); in the test on NCI-H226 it was > 100 µM (inactive); in the test with NCI-H460, 66.2 µM (inactive); in the test on OVCAR-5, > 100 µM (inactive); in the test with CCRF-CEM, > 100 µM (inactive). The GI50 was > 100 µM (inactive) in the test on IGROV-1; 68.7 µM (inactive) in the test on CAKI-1; > 100 µM (inactive) in the test on M19-MEL; > 100 µM (inactive) in the test with EKVX; 55.7 µM (inactive) with M14; > 100 µM (inactive) with SK-OV-3. Besides, the values for the GI50 in the test with MOLT-4 and in the test on LOX IMVI were > 100 µM (inactive) and > 10 µM (inactive), respectively.

Take `O=C(NC1CCC[C@H]1OC(=O)c1ccccc1)c1ccccc1` (stereo not given in full): the GI50 in the test with OVCAR-4 was 30.8 µM (inactive); in the test with KM12 it was 69.8 µM (inactive); in the test on NCI-H226, 13.7 µM (inactive); in the test with NCI-H460, > 100 µM (inactive); with OVCAR-5, > 100 µM (inactive); in the test on CCRF-CEM it was > 100 µM (inactive). Besides, the GI50 was > 100 µM (inactive) in the test on TK-10; > 100 µM (inactive) with IGROV-1; 85.7 µM (inactive) with CAKI-1; > 100 µM (inactive) in the test with M19-MEL; > 100 µM (inactive) with EKVX; > 100 µM (inactive) in the test with M14. Moreover, the GI50 in the test on SK-OV-3 was 43.2 µM (inactive); with MOLT-4 it was 30.1 µM (inactive); in the test on SNB-75, 10.7 µM (inactive).

For the compound `COc1cc2c(c(OC)c1OC)-c1ccc(SC)c(=O)cc1[C@@H](NC(=O)c1ccc([N+](=O)[O-])cc1)CC2`, the GI50 was 0.123 µM (active) with OVCAR-4; < 0.0025 µM (active) with RPMI-8226; < 0.0025 µM (active) in the test with KM12; < 0.01 µM (active) in the test with NCI-H226; 0.00327 µM (active) in the test on NCI-H460; 0.00485 µM (active) with OVCAR-5. The GI50 is < 0.0025 µM (active) with CCRF-CEM; 3.13 µM (inactive) in the test with TK-10; 0.0126 µM (active) with IGROV-1; 0.0195 µM (active) in the test with M19-MEL; < 0.0025 µM (active) in the test with EKVX; < 0.0025 µM (active) in the test with M14. Also, the GI50 was < 0.0025 µM (active) with SK-OV-3, 0.00289 µM (active) in the test with MOLT-4, 10.7 µM (inactive) with SNB-75 and < 0.0025 µM (active) with LOX IMVI.

Regarding `COC[C@@H](/N=C/N1CCc2cc(OC)c(OC)cc2[C@@H]1C)C(C)(C)C`, the GI50 in the test on OVCAR-4, in the test with RPMI-8226, in the test on KM12, with NCI-H226, with NCI-H460 and in the test on CCRF-CEM was > 100 µM (inactive) each time. Besides, the GI50 with TK-10, in the test with IGROV-1, in the test with CAKI-1, in the test on M19-MEL, with EKVX and in the test on M14 was > 100 µM (inactive) throughout. The GI50 with SK-OV-3, in the test with MOLT-4 and in the test with SNB-75 was > 100 µM (inactive) in each case.

For the compound `CC(=O)C1(O)CCC2(O)C3(O)CC=C4CC(O)CCC4(C)C3CC(OC(=O)c3ccc(O)cc3)C12C.COC1CC(OC2C(C)OC(OC3C(C)OC(OC4CCC5(C)C(=CCC6(O)C5CC(OC(=O)c5ccc(O)cc5)C5(C)C(O)(C(C)=O)CCC65O)C4)CC3OC)CC2OC)OC(C)C1O` (stereo not given), the GI50 was 27.5 µM (inactive) in the test with RPMI-8226; 34.4 µM (inactive) in the test with NCI-H226; 34.2 µM (inactive) in the test with NCI-H460; 87.5 µM (inactive) in the test with OVCAR-5; 32.4 µM (inactive) in the test on CCRF-CEM; 60.8 µM (inactive) in the test with TK-10. Moreover, the GI50 with IGROV-1 was 34.2 µM (inactive); in the test with M19-MEL, 35.5 µM (inactive); with EKVX, 35.4 µM (inactive); in the test on SK-OV-3, 36.7 µM (inactive); in the test on MOLT-4, 30.5 µM (inactive); in the test with SNB-75, 76.4 µM (inactive). Further, the GI50 in the test with LOX IMVI was 20.5 µM (inactive).

As for `CC(=O)OCC(OC(C)=O)C(OC(C)=O)C(OC(C)=O)C(=O)CNn1c(-c2ccccc2Cl)nc2ccc(Br)cc2c1=O` (stereo not given), the GI50 in the test on OVCAR-4 was 87.1 µM (inactive); with RPMI-8226 it was 27 µM (inactive); in the test on KM12, > 100 µM (inactive); with NCI-H460 it was > 100 µM (inactive); with OVCAR-5 it was > 100 µM (inactive); with CCRF-CEM it was 42.5 µM (inactive). Also, the GI50 is 38.3 µM (inactive) with CAKI-1; > 100 µM (inactive) with M19-MEL; > 100 µM (inactive) with EKVX; > 100 µM (inactive) in the test on M14; > 100 µM (inactive) in the test with SK-OV-3; 34.6 µM (inactive) in the test with MOLT-4. Further, the GI50 is 59.8 µM (inactive) with SNB-75 and 82 µM (inactive) in the test with LOX IMVI.

For the compound `Nc1ccccc1S(=O)(=O)N(CC(=O)O)c1ccccc1`, the GI50 in the test with OVCAR-4, with RPMI-8226, with NCI-H460, in the test with OVCAR-5, with CCRF-CEM and in the test with TK-10 was > 100 µM (inactive) in each case. Also, the GI50 with IGROV-1, with CAKI-1, with M19-MEL, in the test with EKVX, in the test with M14 and with SK-OV-3 was > 100 µM (inactive) in each case. Further, the GI50 in the test with MOLT-4, with SNB-75 and in the test with LOX IMVI was > 100 µM (inactive) throughout.

Consider `O=C(CNc1nncs1)NO`, for which the GI50 in the test on OVCAR-4 is > 100 µM (inactive); with RPMI-8226, > 100 µM (inactive); in the test on KM12, > 100 µM (inactive); with NCI-H460, > 100 µM (inactive); with OVCAR-5, > 100 µM (inactive); in the test with CCRF-CEM, > 10 µM (inactive). Besides, the GI50 with TK-10, in the test with IGROV-1, in the test with M19-MEL, in the test on EKVX, in the test on M14 and in the test on SK-OV-3 was > 100 µM (inactive) each time. In addition, the GI50 in the test with MOLT-4 and with SNB-75 was > 100 µM (inactive) throughout.

The values are drawn from ChEMBL document CHEMBL1201862, “PubChem BioAssay data set” (2004).
